# Reference: ChEMBL document CHEMBL3638654, “5-HT3 receptor modulators, methods of making, and use thereof” (2015)
# Several values for one entry are separate records, joined by “and”; a condition that tells them apart may be missing. Equal values may be shown once.
# Biological target: T1, 5-hydroxytryptamine receptor 3A (Homo sapiens, UniProt P46098)
# T1 sequence (P46098 whole entry): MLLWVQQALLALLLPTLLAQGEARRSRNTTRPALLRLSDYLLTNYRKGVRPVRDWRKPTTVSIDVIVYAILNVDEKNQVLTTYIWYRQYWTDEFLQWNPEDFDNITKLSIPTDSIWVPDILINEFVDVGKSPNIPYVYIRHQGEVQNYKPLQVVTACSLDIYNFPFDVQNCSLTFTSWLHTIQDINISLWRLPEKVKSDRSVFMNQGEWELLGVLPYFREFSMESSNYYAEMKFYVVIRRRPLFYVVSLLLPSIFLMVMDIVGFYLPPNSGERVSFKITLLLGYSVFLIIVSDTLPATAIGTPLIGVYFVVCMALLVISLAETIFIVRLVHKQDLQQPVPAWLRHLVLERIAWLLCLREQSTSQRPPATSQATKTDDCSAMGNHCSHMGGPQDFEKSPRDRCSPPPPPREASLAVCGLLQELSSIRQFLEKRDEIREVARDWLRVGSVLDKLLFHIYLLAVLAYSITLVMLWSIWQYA
# Assay: Radioligand Binding Assay: The relative affinity of the various compounds for the human 5-HT3 receptor was measured in a radioligand binding assay, using a scintillation proximity assay (SPA) format. Test compounds were dissolved to 10 mM in 100% DMSO, then serially diluted at 10x assay concentrations in 100% DMSO in 96-well polypropylene plates and further diluted to 4x assay concentrations with the assay buffer. Samples were incubated in 50 mM Tris-HCl, pH 7.5, 3 mM MgCl2, 1 mM EDTA and 10% DMSO with 10 nM [9-methyl-3H]BRL-43694 (Perkin Elmer), 3 ug of human 5-HT3 receptor membranes (Perkin Elmer) and 0.5 mg/mL SPA beads (WGA PVT, Amersham Biosciences) in a final volume of 0.2 mL. Binding reactions were set up in wells of PicoPlates-96 (Perkin Elmer) by adding consecutively 50 uL of each competing compound or buffer, SPA beads, the radioligand and 5-HT3 receptor membranes. After an overnight incubation at room temperature on a Nutator mixer, plates were centrifuged for 15 min at 1,500 rpm.
row,SMILES,Ki
1,O=C1c2cccc3[nH]nc(c23)CN1CC1CN2CCC1CC2 (configuration not stated),217 nM and 24 nM
2,O=C1c2cccc3[nH]nc(c23)CCN1CC1CN2CCC1CC2 (configuration not stated),579 nM and 241 nM
